Measured values from patent publication EP0829476B1, “6-Substituted acyclopyrimidine nucleoside derivatives and antiviral agent containing the same as active ingredient thereof” (MITSUBISHI CHEMICAL CORPORATION, priority 1989, dated 1991).

Experiments:
[1] = Cytotoxicity: destruction of MT-4 cells not infected with HIV, cultured the same way; format: cell-based; conditions: human, 5 days of incubation, concentration at which 50 % of the MT-4 cells were destroyed, read-out: 50% cytotoxic concentration to MT-4 cells
Procedure: (§1) In RPMI 1640 DM culture medium containing 20 mM of Hepes buffer solution, 10 % fetal bovine serum and 20 µg/ml of gentamycin, 3 x 10^4 MT-4 cells (human T cell clone which is destroyed by the infection of HIV) were infected with HIV in an amount of 100 times as large as expected to cause 50 % infection of the cells. Immediately thereafter, a predetermined amount of sample was added to the culture medium using 50 mg/ml sample solutions in dimethyl sulfoxide and the cells were cultured at 37°C.
(§2) After 5 days of incubation, the number of existing cells was counted to determine the concentration of the compound for preventing the death of 50 % of the MT-4 cells. Separately, MT-4 cells were cultured in the same way as above except that they were not infected with HIV to determine the concentration of the compound at which 50 % of the MT-4 cells were destroyed.

[2] = tested on: HIV; test: Inhibitory activity for HIV infection: prevention of death of HIV-infected MT-4 cells, cell count after 5 days; format: cell-based; conditions: Human immunodeficiency virus 1, MT4, 120 h, 5 days of incubation at 37°C, concentration preventing the death of 50 % of the MT-4 cells
Procedure: Inhibitory activity for HIV infection
as §1, §2

For `CCOCn1c(Sc2ccccc2)c(CC)c(=O)[nH]c1=S` [Compound 313, 1-ethoxymethyl-5-ethyl-6-phenylthio-2-thiouracil], the CC50 at 120 h [1] was 81 µM.
In the case of `CC(=O)OCCOCn1c(Sc2ccccc2)c(C)c(=O)[nH]c1=S` [Compound 1, 1-[(2-acetoxyethoxy)methyl]-6-phenylthio-2-thiothymine], the CC50 at 120 h [1] is reported as 196 µM.
With `CCOCn1c(Cc2ccccc2)c(CC)c(=O)[nH]c1=O` [Compound 427, 6-benzyl-1-ethoxymethyl-5-ethyluracil] the CC50 at 120 h [1] was 245 µM.
Work on `CCOCn1c(Sc2cc(C)cc(C)c2)c(CC)c(=O)[nH]c1=S` [Compound 314] yielded a CC50 at 120 h [1] greater than 100 µM and an EC50 [2] of 0.004 µM.
With `CCOCn1c(-c2ccccc2)c(CC)c(=O)[nH]c1=S` [Compound 215, 1-ethoxymethyl-5-ethyl-6-phenylthiouracil] the CC50 at 120 h [1] was 133 µM and the EC50 [2] was 0.016 µM.
In the case of `CCCCn1c(-c2ccccc2)c(CC)c(=O)[nH]c1=S` [Compound 220, 1-butyl-5-ethyl-6-phenylthiouracil], the CC50 at 120 h [1] is reported as 45 µM and the EC50 [2] is reported as 0.016 µM.
For `CCCOCn1c(Sc2ccccc2)c(C)c(=O)[nH]c1=O` [Compound 38], the CC50 at 120 h [1] was 147 µM and the EC50 [2] was 5.6 µM.
